Data as given in ChEMBL document CHEMBL1201862, “PubChem BioAssay data set” (2004).
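How tested: cells in 96-well plates exposed to compound for 48 hours at five concentrations. GI50 is the concentration that inhibits growth by half.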 The source made the active and inactive calls. No stated cut-off is given here; in the data, active = GI50 up to about 1.1 µM and inactive = higher.

Legend:
Experiment in all cases: NCI anticancer screen, dose series, 48 h
A549 = test system: A549
OVCAR-8 = test system: OVCAR-8
HL-60 = test system: HL-60
HOP-92 = test system: HOP-92
K562 = test system: K562
NCI-H226 = test system: NCI-H226
SF-295 = test system: SF-295
SR = test system: SR
SK-MEL-28 = test system: SK-MEL-28
NCI-H522 = test system: NCI-H522
OVCAR-5 = test system: OVCAR-5
MDA-MB-231 = test system: MDA-MB-231
IGROV-1 = test system: IGROV-1
KM12 = test system: KM12
Malme-3M = test system: Malme-3M
Hs-578T = test system: Hs-578T
U-251 = test system: U-251
SK-OV-3 = test system: SK-OV-3
786-0 = test system: 786-0
RXF 393 = test system: RXF 393

Structure (SMILES)	GI50 (A549)	GI50 (OVCAR-8)	GI50 (HL-60)	GI50 (HOP-92)	GI50 (K562)	GI50 (NCI-H226)	GI50 (SF-295)	GI50 (SR)	GI50 (SK-MEL-28)	GI50 (NCI-H522)	GI50 (OVCAR-5)	GI50 (MDA-MB-231)	GI50 (IGROV-1)	GI50 (KM12)	GI50 (Malme-3M)	GI50 (Hs-578T)	GI50 (U-251)	GI50 (SK-OV-3)	GI50 (786-0)	GI50 (RXF 393)
O=C(O)CN(CC(=O)O)C1CCCCC1N1CC(=O)OC(=O)C1 (stereo not drawn)	> 100 µM (inactive)	> 100 µM (inactive)	> 100 µM (inactive)	> 100 µM (inactive)	71.8 µM (inactive)	> 100 µM (inactive)	> 100 µM (inactive)	71.4 µM (inactive)	> 100 µM (inactive)	> 100 µM (inactive)	> 100 µM (inactive)	> 100 µM (inactive)	49.1 µM (inactive)	> 100 µM (inactive)	10.3 µM (inactive)	47.1 µM (inactive)	43.4 µM (inactive)	> 100 µM (inactive)	> 100 µM (inactive)	
O=C1CCC[C@H]2O[C@@H](COCc3ccccc3)C[C@@H]12	> 100 µM (inactive)	> 100 µM (inactive)	> 100 µM (inactive)	> 100 µM (inactive)	> 100 µM (inactive)	> 100 µM (inactive)	> 100 µM (inactive)	> 100 µM (inactive)	> 100 µM (inactive)		> 100 µM (inactive)	> 100 µM (inactive)		> 100 µM (inactive)		> 100 µM (inactive)	> 100 µM (inactive)	> 100 µM (inactive)	> 100 µM (inactive)	
Cc1cnc2c(c1)C(=O)N(c1ccc([N+](=O)[O-])cc1)S2(=O)=O	95.9 µM (inactive)	> 100 µM (inactive)	28.2 µM (inactive)	> 100 µM (inactive)		19.9 µM (inactive)	82.8 µM (inactive)	25.7 µM (inactive)	74 µM (inactive)	25.1 µM (inactive)	> 100 µM (inactive)	> 100 µM (inactive)	30.3 µM (inactive)	> 100 µM (inactive)	22.4 µM (inactive)	38.1 µM (inactive)	67.1 µM (inactive)	> 100 µM (inactive)	> 100 µM (inactive)	
COC(=O)c1c(O)ccc2c1c1c(n2Cc2ccc(Cl)cc2Cl)C(=O)c2ccccc2C1	41.3 µM (inactive)	37.8 µM (inactive)	> 100 µM (inactive)		52.1 µM (inactive)	27.6 µM (inactive)		36.3 µM (inactive)	45.2 µM (inactive)			69.7 µM (inactive)	50.8 µM (inactive)	22 µM (inactive)	97.7 µM (inactive)	93.8 µM (inactive)	38 µM (inactive)	47.9 µM (inactive)	74.5 µM (inactive)	31 µM (inactive)
CC(C)CC(N)C(=O)Nc1ccc2ccccc2c1 (stereo not drawn)	> 100 µM (inactive)	> 100 µM (inactive)	98.2 µM (inactive)		> 100 µM (inactive)	67.8 µM (inactive)	> 100 µM (inactive)	> 100 µM (inactive)	> 100 µM (inactive)	> 100 µM (inactive)	> 100 µM (inactive)	> 100 µM (inactive)	> 100 µM (inactive)	0.316 µM (active)	> 100 µM (inactive)	> 100 µM (inactive)	> 100 µM (inactive)	> 100 µM (inactive)	> 100 µM (inactive)	> 100 µM (inactive)
COc1ccccc1N1C(=O)C2C3c4ccccc4C(OC(C)=O)(c4ccccc43)C2C1=O (stereo not drawn)	> 100 µM (inactive)	43 µM (inactive)	> 100 µM (inactive)		> 100 µM (inactive)	> 100 µM (inactive)	78.7 µM (inactive)	> 100 µM (inactive)	71.9 µM (inactive)		> 100 µM (inactive)	> 100 µM (inactive)	> 100 µM (inactive)	77.4 µM (inactive)	33.8 µM (inactive)	14.8 µM (inactive)	60.7 µM (inactive)	> 100 µM (inactive)	39.3 µM (inactive)	> 100 µM (inactive)
CC1(C)OCC2OC3(c4nc(C#N)c(N)o4)OC(C)(C)OC3C2O1 (stereo not drawn)	> 100 µM (inactive)	> 100 µM (inactive)	> 100 µM (inactive)	> 100 µM (inactive)	> 53.3 µM (inactive)	> 100 µM (inactive)	> 100 µM (inactive)	> 100 µM (inactive)	> 100 µM (inactive)	> 100 µM (inactive)	> 100 µM (inactive)	> 100 µM (inactive)	> 100 µM (inactive)	> 100 µM (inactive)	> 100 µM (inactive)	> 100 µM (inactive)	> 100 µM (inactive)	> 100 µM (inactive)	> 100 µM (inactive)	
C/C(=N\Nc1nc2ccccc2o1)c1ccc2ccccc2n1	4.2 µM (inactive)	2.89 µM (inactive)	2.33 µM (inactive)		3.67 µM (inactive)		3.72 µM (inactive)	0.579 µM (active)	3.96 µM (inactive)	1.94 µM (inactive)	2.93 µM (inactive)	2.98 µM (inactive)	0.356 µM (active)	3.48 µM (inactive)	4.21 µM (inactive)	27.4 µM (inactive)	3.21 µM (inactive)	23.1 µM (inactive)	3.68 µM (inactive)	18.5 µM (inactive)
